In US20240002326A1, “COMPOUNDS AND USE THEREOF IN METHODS OF TREATMENT” (The University of Queensland, priority 2016, published 2024):
“Also recorded” adds a separate entry of the source. *1 amine or outer side, *2 acyl side, *3 side chain or, on linkers, in order; H or OH if unused. Where a SMILES comes first, the peptide text is derived from it. Bridges are numbered along the chain shown (N, C = ends). Roman numbers before positions name the chains, in order. [ ]: non-standard residue; d: D form. Actinocin(9to1) = Cc1c2oc3c(C)ccc(C(=O)[*:1])c3nc-2c(C(=O)[*:2])c(N)c1=O; NMeV = CN[C@H](C(=O)O)C(C)C; Sar = CNCC(=O)O

What was measured:
scrambled DNA = assay: Direct DNA-binding assay (SPR), scrambled DNA; conditions: biotinylated double-strand DNA on streptavidin chip
Experimental: (§1) Compounds were tested at a 1% v/v DMSO in HBS-EP buffer (10 mM HEPES, 150 mM NaCl, 3 mM EDTA, 0.005% v/v polysorbate 20, pH 7.4). The same buffer supplemented with 1% v/v DMSO was used as a mobile phase. DNA minor groove binder DAPI (4′,6-diamidino-2-phenylindole), DNA intercalator and minor groove binder actinomycin D, and DNA intercalator ethidium bromide were used as positive controls. Biotinylated (one tag per probe) double strand DNA probes were prepared using a standard annealing routine (5 min at 100° C., room temperature overnight and stored at −20° C.) of single strand anti-parallel DNA Probes purchased from Geneworks and were immobilized on CM5-SA streptavidin chips as per manufacturer's recommendations. […] All sample and control cycles were performed in triplicate. DMSO calibration was performed as per manufacturer's recommendations. After each injection, an extra flow system wash was performed with 50% v/v DMSO to avoid carryover. Experiments were run on a Biacore T200 (GE Healthcare, USA), with one flow cell kept as a reference.
(§2) From a molecular viewpoint, an inhibitor of SOX18-DNA binding could act either by interacting directly with the DNA, or the protein, or at the interface between protein and DNA. Binding of small molecules directly to the DNA, even though reported for other TFs (Leung et al., 2013), has the potential for unspecific DNA binding, leading to possible genotoxicity, mutagenicity, or carcinogenicity. For this reason, we developed a direct binding assays to determine whether the active compounds interact directly with DNA or protein. A surface plasmon resonance-based method was developed to analyse the binding of small molecules to biotinylated double stranded DNA immobilized on the surface of a streptavidin chip. The method measures the rate of binding (kon), dissociation (koff) and binding constant (KD), and was used to measure the binding to two different DNA sequences: SOX binding site consensus DNA, and scrambled DNA. Intercalating agents ethidium bromide and Actinomycin D, and the minor groove-binding agent 4′,6-diamino-2-phenylindole (DAPI) were used as positive controls for unselective DNA binding.

[1] = test system: SOX binding site consensus DNA; assay: Direct DNA-binding assay (SPR), consensus DNA; conditions: biotinylated double-strand DNA on streptavidin chip
Experimental: as §1, §2

HEK293 = assay: Cytotoxicity assay (Alamar blue), HEK293; assay type: cell-based; conditions: HEK293, 24 h
Experimental: Cell toxicity was determined using Alamar blue, as previously described (McMillian et al., 2002). COS-7 cells were seeded as 7000 cells per well in black wall clear bottom 96-well plates in DMEM medium (Life Technologies Australia) with 10% FBS. HepG2 and HEK293 cell lines, from ATCC, were seeded as 5000 cells per well in black wall clear bottom 384-well cell culture plates in DMEM with 1% FBS. Cells were cultured for 24 h at 37° C., 5% CO2. A serial dilution of compounds was added, with a final DMSO concentration adjusted to 0.5% v/v. Cells were incubated for another 24 h. 1 Triton X-100 was used as negative control, and 0.5% DMSO as positive control. 5 μM Alamar blue was added to each well and fluorescence was measured (λexc=560 nm, λem=590 nm) after 2 h incubation at 37° C. Data were analysed using Prism software.

SOX18-RBPJ interaction = SOX18-RBPJ interaction (Homo sapiens (Human), UniProt P35713); assay: ALPHAScreen SOX18-RBPJ protein-protein interaction; assay type: binding
Sequence of SOX18-RBPJ interaction (P35713 whole entry): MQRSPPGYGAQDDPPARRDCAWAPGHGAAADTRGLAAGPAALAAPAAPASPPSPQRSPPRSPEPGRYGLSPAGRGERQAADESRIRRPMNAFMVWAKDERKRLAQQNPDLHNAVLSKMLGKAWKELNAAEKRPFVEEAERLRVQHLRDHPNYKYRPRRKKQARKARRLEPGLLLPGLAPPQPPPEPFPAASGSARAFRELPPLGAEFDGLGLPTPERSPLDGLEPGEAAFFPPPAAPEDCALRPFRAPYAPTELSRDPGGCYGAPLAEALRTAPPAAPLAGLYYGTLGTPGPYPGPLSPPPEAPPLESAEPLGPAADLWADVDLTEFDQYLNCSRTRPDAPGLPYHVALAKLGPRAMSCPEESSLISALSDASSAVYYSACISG
Text: Proteins were genetically encoded with enhanced GFP (GFP), mCherry and cMyc (myc) tags, and cloned into cell free expression Gateway destination vectors: N-terminal GFP tagged (pCellFree_G03), N-terminal Cherry-cMyc (pCellFree_G07) and C-terminal Cherry-cMyc tagged (pCellFree_G08) (Gagoski et al., 2015). Human RBPJ (BC020780) and MEF2C (BC026341) Open Reading Frames (ORFs) were sourced from the Human ORFeome collection, version 1.1 and 5.1, and the Human Orfeome collaboration OCAA collection (Open Biosystems), as previously described (Sierecki et al., 2013) and cloned at the ARVEC facility, UQ Diamantina Institute. The entry clones pDONOR223 or pENTR201 vectors were exchanged with the ccdB gene in the expression plasmid by LR recombination (Life Technologies, Australia). The full-length human SOX18 gene was synthesized and the transfer to vectors was realized using Gateway PCR cloning. Translation competent Leishmania tarentolae extract (LTE) was prepared as previously described (Kovtun et al., 2011, Mureev et al., 2009). Protein pairs were co-expressed by adding 30 nM of GFP template plasmid and 60 nM of Cherry template plasmid to LTE and incubating for 3 hours at 27° C.
ALPHAScreen was performed as previously described (Sierecki et al., 2014, Sierecki et al., 2013). […] Percentage of interaction was calculated as: (I_cpd/I_DMSO)×100 from 3 independent experiments.
ALPHAScreen was performed as previously described (Sierecki et al., 2014, Sierecki et al., 2013), using the cMyc detection kit and Proxiplate-384 Plus plates (PerkinElmer). The LTE lysate co-expressing the proteins of interest was diluted in buffer A (25 mM HEPES, 50 mM NaCl). For the assay, 12.5 μL (0.4 μg) of Anti-cMyc coated Acceptor Beads in buffer B (25 mM HEPES, 50 mM NaCl, 0.001% NP40, 0.001% casein) were aliquoted into each well. This was followed by the addition of 2 μL of diluted sample, at different concentration, and 2 μL of biotin labeled GFP-Nanotrap in buffer A. The plates were incubated for 45 min at room temperature, then adding 2 μL (0.4 μg) of streptavidin-coated Donor Beads diluted in buffer A, and incubation in the dark for 45 min at room temperature. The ALPHAScreen signal was measured on an Envision Plate Reader (PerkinElmer), using manufacturer's recommended settings (λexc=680/30 nm for 0.18 s, λem=570/100 nm after 37 ms). The resulting bell-shaped curve is an indication of a positive interaction, while a flat line reflects a lack of interaction between the proteins. The measurement of each protein pair was repeated in triplicate.
I is the highest signal level (top of the hook effect curve) and Ineg is the lowest (background) signal level. The signals were normalized to the Iref signal obtained for the strongest interaction. […] Percentage of interaction was calculated as: […]
The ALPHA-Screen Assay was performed as previously described (Sierecki et al. 2014), using the cMyc detection kit and Proxiplate-384 Plus plates (PerkinElmer). A serial dilution of each sample was measured. The LTE lysate co-expressing the proteins of interest was diluted in buffer A (25 mM HEPES, 50 mM NaCl). For the assay, 12.5 μL (0.4 μg) of Anti-cMyc coated Acceptor Beads in buffer B (25 mM HEPES, 50 mM NaCl, 0.001% NP40, casein) were aliquoted into each well. This was followed by the addition of 2 μL of diluted sample and 2 μL of biotin labeled GFP-Nanotrap in buffer A. The plate was incubated for 45 min at RT. Afterward, 2 μL (0.4 μg) of Streptavidin coated Donor Beads diluted in buffer A, were added, followed by incubation in the dark for 45 min at RT. The ALPHA-Screen signal was obtained on an Envision Multilabel Plate Reader (PerkinElmer), using the manufacturer's recommended settings (excitation: 680/30 nm for 0.18 s, emission: 570/100 nm after 37 ms). The resulting bell-shaped curve is an indication of a positive interaction, while a flat line reflects a lack of interaction between the proteins. […]

HepG2 = assay: Cytotoxicity assay (Alamar blue), HepG2; assay type: cell-based; conditions: HepG2, 24 h
SOX18[109] HMG fragment = SOX18[109] HMG fragment (Mus musculus (Mouse), UniProt P43680); assay: FP DNA-binding competition assay, SOX18[109] HMG fragment; conditions: for FP bound fraction (%) 50 μM / FP bound fraction (%) 200 μM: SOX18/DNA binding
Sequence of SOX18[109] HMG fragment (P43680 69-177): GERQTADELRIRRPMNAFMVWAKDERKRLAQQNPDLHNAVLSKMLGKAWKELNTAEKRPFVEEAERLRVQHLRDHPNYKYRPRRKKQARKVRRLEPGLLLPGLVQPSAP
Experimental: Mouse SOX HMG fragments. The HMG domains of mouse SOX2 (Group B), SOX11 (Group C), SOX6 (Group D), SOX9 (Group E), SOX18 (Group F) and SOX15 (Group G) were BP cloned from cDNA templates (IMAGE cDNA clone IDs: Sox18: 3967084; Sox9: 5354229; Sox4: 6822618) into a pDONRTM221 pENTRY vector, sequenced and recombined into a pETG20A or a pHisMBP expression plasmid using Gateway®LR Technology (Ng et al., 2012). Constructs were transformed into Escherichia coli BL21(DE3) cells (Luria-Bertani, 100 μg/ml Ampicillin).
The DNA-binding competition assay was performed in black 384-well plates, with mouse full length SOX18, or SOX-HMG fragments. All experiments were performed using a fluorescently-labelled Prox1-DNA element. Controls consisted of free labelled DNA (low FP milli-Polarization index, mP), labelled DNA in presence of protein (negative control, high mP), and labelled DNA and protein in presence of competing excess of unlabelled DNA (positive control, low mP)
The DNA-binding competition assay was performed in 25 uL, in black 384-well plates, using either 30 mM HEPES (N-2-Hydroxyethylpiperazine-N′-2-Ethanesulfonic Acid) (pH 7.5, with 100 mM KCl, 40 mM NaCl, 10 mM NH4OAc, […], 2 mM MgCl2, 0.5 mM EDTA, 0.01% NP-40) for mouse full length SOX18, or Tris-NaCl (10 mM Tris pH 8.0 and 100 mM NaCl) for SOX-HMG fragments. All experiments were performed using a 40 bp double-stranded Prox1-DNA element with 5′ fluorescein amidite (FAM) label (Sigma Proligo or InVitrogen). Optimum binding levels were obtained at 200 nM of mouse full length SOX18 and 60 nM of SOX-HMG fragment, in presence of 5 nM labelled DNA. Controls consisted of free labelled DNA (low FP milli-Polarization index, mP), labelled DNA in presence of protein (negative control, high mP), and labelled DNA and protein in presence of 400 time competing excess of unlabelled DNA (positive control, low mP). Depending on compound, final DMSO concentrations ranged from 2 to 3.33% v/v. After mixing protein, DNA probe and compound, plates were sealed and briskly agitated in the dark for 5 minutes at room temperature, 10 minutes at 37° C., and 30 minutes at room temperature, before reading fluorescence polarization on a Tecan M1000Pro (λexc=485 nm, λem=525 nm). All experiments were performed in triplicates.
In order to pinpoint the possible binding site of the small molecules, the FP assays were repeated with a shorter, DNA-binding centred protein fragment. The DNA binding domain of SOX TFs consists of the […] amino acid long High Mobility Group (HMG) box. The 109 amino-acid long SOX18 fragment (SOX18[109]) corresponds to residues 69-177 (numbering by mouse SOX18), which includes the HMG box (residues 78-149) and N- and C-terminal flanking sequences of 9 and 28 amino-acids, respectively.

Compound	binding to scrambled DNA (SPR) (scrambled DNA)	binding to consensus DNA (SPR) [1]	CC50 (HEK293)	effect on SOX18-RBPJ interaction (PPI) (SOX18-RBPJ interaction; ALPHAScreen)	CC50 (HepG2)	FP bound fraction (%) 50 μM (SOX18[109] HMG fragment)	FP bound fraction (%) 200 μM (SOX18[109] HMG fragment)	SOX18-DNA binding inhibition (FP, words) (SOX18[109] HMG fragment; SAR library, SOX18[109])	SOX18-RBPJ protein-protein binding inhibition at 5 μM (SOX18-RBPJ interaction; 5 μM)
N=C(N)c1ccc(-c2cc3ccc(C(=N)N)cc3[nH]2)cc1 [DAPI, 4′,6-diamidino-2-phenylindole]	bind to DNA	bind to DNA							
O=C(O)c1c(O)cccc1C=Cc1ccc2ccccc2c1 (mixture of isomers) [Sm20, (E/Z)-2-hydroxy-6-(2(naphthalen-2-yl)vinyl)benzoic acid]			97.1 µM	inhibit both DNA and PPI	71.3 µM	10.3 ± 4.1%	11.9 ± 8.5%	displayed SOX18-DNA binding inhibiting activity; also recorded: inhibit both DNA and PPI	
Cc1c2oc3c(C)ccc(C(=O)N[C@@H]4C(=O)N[C@H](C(C)C)C(=O)N5CCC[C@H]5C(=O)N(C)CC(=O)N(C)[C@@H](C(C)C)C(=O)O[C@@H]4C)c3nc-2c(C(=O)N[C@@H]2C(=O)N[C@H](C(C)C)C(=O)N3CCC[C@H]3C(=O)N(C)CC(=O)N(C)[C@@H](C(C)C)C(=O)O[C@@H]2C)c(N)c1=O [actinomycin D] (I: T[dV]P[Sar][NMeV] / II: T[dV]P[Sar][NMeV]; ester I:1-I:C, II:1-II:C; linker I:N-II:N via Actinocin(9to1))	bind to DNA	bind to DNA							
CC[n+]1c(-c2ccccc2)c2cc(N)ccc2c2ccc(N)cc21 [ethidium bromide]	bind to DNA	bind to DNA							
N,N-diethyl-2-methoxy-6-(2-(naphthalene-2-yl)vinyl)benzamide [Sm17]			62.6 µM		38.5 µM	100.3 ± 6.0%	117.0 ± 10.9%		
COc1cccc(C=Cc2ccc3ccccc3c2)c1C(=O)O (mixture of isomers) [Sm19, (E/Z)-2-methoxy-6-(2-(naphthalen-2-yl)vinyl)benzoic acid]			> 100 µM		> 100 µM	99.2 ± 6.8%	107.6 ± 4.5%		highly active
